Assay in all cases: 3' UTR reporter interaction score (median-centred robust z-score of log2 firefly/Renilla activity); higher = less repression of the 3' UTR reporter
What all share (conditions): HEK293T; 48 h

Data set [1] relates to RB1. In short, it runs like this: (§1)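 In at least two independent screens, HEK293T cells in 96-well plates (10,000/well) were co-transfected with DharmaFECT Duo using 100 ng firefly luc2P reporter with the gene's 3' UTR, 20 ng Renilla pRL-TK control and 2.5 pmol miRNA mimic, and dual-luciferase activities were read at 48 h. The interaction score, averaged across screens, is the per-plate robust z-score (median, median absolute deviation) of the log firefly/Renilla ratio, median-centred per miRNA, with more negative indicating interaction.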

In data set [2] the test system is TP53. In outline:
as §1

Data set [3] has as its system MYB. In short, it runs like this:
as §1

Data set [4] relates to HRAS. In short, it runs like this:
as §1

The subject of data set [5] is EZH2. In short, it runs like this: as §1
Data set [6] concerns NOTCH1. In short, it runs like this: as §1
Data set [7] has as its system ZEB2. In short, it runs like this:
as §1

Data set [8] concerns FBXW7. In outline: as §1
For data set [9], the system named is BRCA2. In outline: as §1
The subject of data set [10] is MYT1L. In outline:
as §1

Data set [11] relates to MYCN. In outline: as §1
The test system of data set [12] is PHOX2B. In outline: as §1
Data set [13] relates to PHF6. In short, it runs like this:
as §1

Data set [14] has as its system MYC. In outline: as §1

Consider CUGACCUAUGAAUUGACAGCC, for which the “3' UTR reporter interaction score” value in data set [1] was -2.94; in [2], 0.334; in data set [3] it was 0.682; in data set [4] it was 0.344; in data set [5], -0.124; in [6], 0.282. Further, the “3' UTR reporter interaction score” value in data set [7] is -6.22; in data set [8] it was -0.577; in [9], -0.668; in [10] it was 0.445; in data set [11], 1.31; in data set [12], -1.28. The “3' UTR reporter interaction score” value in data set [13] was -3.78; in data set [14] it was 1.2.

For UGAGUUGGCCAUCUGAGUGAG, the “3' UTR reporter interaction score” value in [1] is 0.000132; in data set [2], -0.988; in data set [3] it was 0.927; in [4], -0.0567; in data set [5], 0.24; in data set [6], 1.03. In addition, the “3' UTR reporter interaction score” value in [7] is 0.14; in [8], -0.251; in data set [9], -0.135; in data set [10], 2.61; in data set [11] it was -3.35; in data set [12] it was -3.59. Also, the “3' UTR reporter interaction score” value in data set [13] was 2.42; in data set [14] it was -0.317.

AUUGACACUUCUGUGAGUAG: the “3' UTR reporter interaction score” value in data set [1] was 0.465; in data set [2] it was 0.785; in data set [3], 0.756; in data set [4], -0.309; in [5], -0.495; in data set [6] it was -0.955. The “3' UTR reporter interaction score” value in [7] is -1.2; in [8], -1.37; in data set [9], 0.358; in [10], 0.508; in data set [11], 0.177; in data set [12] it was -1.35. Also, the “3' UTR reporter interaction score” value is -0.709 in [13] and -0.339 in data set [14].

Take CGAAUGUUGCUCGGUGAACCCCU: the “3' UTR reporter interaction score” value is 0.281 in [1]; -0.241 in data set [2]; 0.287 in data set [3]; -0.194 in data set [4]; -0.254 in [5]; 1.32 in data set [6]. In addition, the “3' UTR reporter interaction score” value is -0.941 in [7]; 0.304 in data set [8]; -0.821 in data set [9]; 0.642 in data set [10]; 0.119 in data set [11]; 1.32 in data set [12]. For the same sequence, the entries for the “3' UTR reporter interaction score” value in data set [13] and in data set [14] were -1.07 and 0.217, respectively.

For the sequence AACAUUCAACGCUGUCGGUGAGU, the “3' UTR reporter interaction score” value in [1] was 0.404; in data set [2], 0.784; in data set [3] it was 0.057; in data set [4], -0.301; in data set [5], -0.146; in data set [6], 0.193. Also, the “3' UTR reporter interaction score” value was -0.18 in data set [7]; -0.842 in [8]; 0.243 in [9]; -0.0848 in data set [10]; -0.12 in data set [11]; -0.00434 in data set [12]. The figures for the “3' UTR reporter interaction score” value in data set [13] and in [14] were -0.891 and 0.478, respectively.

Turning to ACCCUAUCAAUAUUGUCUCUGC, the “3' UTR reporter interaction score” value in [1] was -0.979; in data set [2] it was -0.169; in data set [3], 0.329; in [4], -0.283; in data set [5], -0.658; in data set [6], -0.0515. The “3' UTR reporter interaction score” value was 0.936 in data set [7]; 0.326 in data set [8]; -0.211 in [9]; -0.388 in data set [10]; 0.109 in data set [11]; -0.0439 in data set [12]. Further, the “3' UTR reporter interaction score” value in data set [13] stood at 0.779; in data set [14] it was 0.123.

As for AAGCAGCUGCCUCUGAGGC, the “3' UTR reporter interaction score” value is 0.293 in [1]; 0.187 in data set [2]; -1.27 in [3]; -0.819 in data set [4]; -1.03 in [5]; -0.304 in [6]. Moreover, the “3' UTR reporter interaction score” value in data set [7] is 1.09; in data set [8], -2.92; in data set [9], -0.823; in [10], -4.53; in [11], 0.924; in data set [12] it was 0.758. For the same sequence, the “3' UTR reporter interaction score” value in data set [13] worked out at 0.632; in [14], 1.09.

As for AACAUUCAACCUGUCGGUGAGU, the “3' UTR reporter interaction score” value in data set [1] was 0.216; in [2], -0.761; in data set [3], 1.08; in [4] it was -0.974; in [5], -0.0307; in data set [6], 0.774. Besides, the “3' UTR reporter interaction score” value in data set [7] was 1.39; in data set [8] it was 0.747; in [9], -1.56; in data set [10] it was 1.67; in [11] it was -1.2; in [12], 0.334. Besides, the figures for the “3' UTR reporter interaction score” value in data set [13] and in [14] were 0.226 and -0.157, respectively.

Turning to UGGUAGACUAUGGAACGUA, the “3' UTR reporter interaction score” value is 1.85 in data set [1]; -0.283 in data set [2]; 0.96 in data set [3]; -0.461 in data set [4]; -0.991 in [5]; 0.639 in [6]. The “3' UTR reporter interaction score” value in [7] is 0.356; in data set [8], 0.552; in data set [9], -0.722; in [10] it was 0.0286; in data set [11], 0.966; in data set [12], -0.373. The “3' UTR reporter interaction score” value is -0.619 in data set [13] and -0.304 in data set [14].

Consider UAUGGCUUUUUAUUCCUAUGUGA, for which the “3' UTR reporter interaction score” value in [1] was -0.178; in data set [2], 0.14; in [3] it was -0.0826; in data set [4], -0.268; in [5] it was 0.742; in data set [6] it was -0.625. The “3' UTR reporter interaction score” value was 0.676 in [7]; 0.0824 in data set [8]; 0.03 in data set [9]; 0.172 in [10]; 0.776 in data set [11]; -1.06 in data set [12]. Moreover, the “3' UTR reporter interaction score” value in data set [13] was 0.879; in data set [14], -0.0719.

Source of the values: the supplement of paper PMC5844555.
